Test results as given in publication PMC2785468, “Androgen Receptor Mutations Associated with Androgen Insensitivity Syndrome: A High Content Analysis Approach Leading to Personalized Medicine” (PLoS ONE, 2009).

Biological target: T1, AR-P766S (Homo sapiens, UniProt P10275, P767S)
T1 construct: expressed in transfected cells
T1 sequence (P10275 1-920 P767S): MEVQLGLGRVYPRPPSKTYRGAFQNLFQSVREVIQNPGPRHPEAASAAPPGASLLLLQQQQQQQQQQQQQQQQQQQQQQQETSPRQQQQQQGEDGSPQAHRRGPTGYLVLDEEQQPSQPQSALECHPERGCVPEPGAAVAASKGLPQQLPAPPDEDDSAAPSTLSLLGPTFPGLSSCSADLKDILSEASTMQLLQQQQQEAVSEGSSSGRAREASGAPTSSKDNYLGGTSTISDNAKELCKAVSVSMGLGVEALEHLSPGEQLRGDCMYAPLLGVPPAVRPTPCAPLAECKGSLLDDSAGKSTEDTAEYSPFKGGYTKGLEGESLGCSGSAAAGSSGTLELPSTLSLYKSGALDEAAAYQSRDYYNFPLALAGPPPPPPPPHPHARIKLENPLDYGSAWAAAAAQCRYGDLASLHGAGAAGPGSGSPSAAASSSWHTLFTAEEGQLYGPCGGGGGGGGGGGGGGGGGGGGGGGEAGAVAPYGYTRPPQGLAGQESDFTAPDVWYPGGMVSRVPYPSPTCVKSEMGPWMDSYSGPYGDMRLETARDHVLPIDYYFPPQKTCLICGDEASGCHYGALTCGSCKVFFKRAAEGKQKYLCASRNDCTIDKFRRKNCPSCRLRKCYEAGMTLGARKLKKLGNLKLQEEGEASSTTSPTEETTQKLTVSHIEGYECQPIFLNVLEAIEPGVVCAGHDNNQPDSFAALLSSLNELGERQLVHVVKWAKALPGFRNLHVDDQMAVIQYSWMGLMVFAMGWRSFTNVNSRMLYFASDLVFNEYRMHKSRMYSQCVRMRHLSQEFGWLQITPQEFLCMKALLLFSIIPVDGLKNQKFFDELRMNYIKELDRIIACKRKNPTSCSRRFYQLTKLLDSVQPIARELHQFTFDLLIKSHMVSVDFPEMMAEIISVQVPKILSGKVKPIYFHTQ
Format: cell-based
Conditions: HeLa P766S
Experimental: To determine the global effect of the various AIS mutations on AR signaling, each was analyzed using HCA. This technology allows simultaneous quantification of AR protein expression, nuclear translocation, subnuclear patterning, and transcriptional activity. The analysis was done in HeLa cell lines stably transfected with wild type or mutant ARs fused with green fluorescent protein, or using AR immunofluorescence in primary cultures of genital skin fibroblasts generated from foreskin biopsies of historical AIS patients, or of normal neonates undergoing circumcision at birth. To prevent the effects of receptor over-expression, stable HeLa cells were carefully selected to express AR levels similar to LNCaP as previously described. Prior to ligand treatment, HeLa cells were transfected with the pARR2PB-dsRED2skl reporter plasmid, consisting of the AR responsive promoter ARR2PB [31] driving expression of the red fluorescent protein reporter dsRED2skl engineered to target peroxisomes.
For studies utilizing HeLa GFP-AR cell lines, twenty-four hours before transfection with pARR2PB-dsRED2skl, cells were plated onto 100 mm plastic dishes in medium supplemented with 5% charcoal-stripped and dialyzed-FBS. Transient introduction of the pARR-2PB-dsRED2skl reporter construct was performed using 6.0 µg reporter plasmid and 6.0 µg carrier DNA (BlueScript, Stratagene, San Diego, CA) using Transfectin (Biorad) following standard protocols. After 8-hour incubation, DNA/lipid complexes were removed. Cells were then trypsinized and replated at 10,000 cells per well in Nunc poly-D-lysine treated 96-well optical glass bottom plates and incubated an additional 12 hours to allow for cell adhesion. […] Compound dilutions and final addition to multi-well plates were performed using a Beckman Biomek NX robotic platform to ensure repeatability from experiment to experiment. After incubation was complete, using the Biomek NX robot, plates were washed with PBS and fixed for 20 min at RT in 4% formaldehyde prepared in CSK buffer (80 mM potassium PIPES, pH 6.8, 5 mM EGTA, 2 mM MgCl2). After fixation, cells were briefly permeabilized (5 min) with 0.5% Triton-X and prepared for imaging by washing in PBS, aspirating the washed solution, and adding a 1 ng/ml DAPI solution to stain DNA and a generic protein stain (CellMask, Invitrogen) to facilitate cell and nuclear image segmentation. Cells were imaged in PBS.
Cells were imaged using the Cell Lab IC-100 Image Cytometer (IC-100; Beckman Coulter) platform that consists of 1) Nikon Eclipse TE2000-U Inverted Microscope (Nikon; Melville, NY); 2) Chroma 82000 triple band filter set (Chroma; Brattleboro, VT); 3) an imaging camera: Hamamatsu ORCA-ER Digital CCD camera (Hamamatsu; Bridgewater, NJ); and 4) a focusing camera: Photonics COHU Progressive scan camera (Photonics; Oxford, MA). […] In general, 49 to 64 images were captured per well for image analysis.
While our initial AR studies using HTM were based upon CytoShop (Beckman-Coulter), [15], [33], these approaches were refined in the current work with the more robust server-client Pipeline Pilot image analysis platform (Basic and Advanced Imagine Collections, Pipeline Pilot 7.5, Accelrys, San Diego). Initially, the background signal was removed from all images using plate- and channel-specific correction images, generated by the sum projection of >600 randomly selected images for each channel from the image set. This allows for a pixel-by-pixel background subtraction that compensates any consistent uneven background artifacts in the image set. Furthermore, users are able to customize the degree of background subtraction by applying a multiplier to each correction image, useful for identification of objects such as nuclei or cell borders. After background subtraction, nuclear masks were generated using a combination of non-linear least squares and watershed-from-markers image manipulations of the DAPI images (Fig. 1B).

## C[C@@H]1CC2=CC(=O)CC[C@@H]2[C@H]2CC[C@@]3(C)[C@@H](CC[C@]3(C)O)[C@@H]21 [Mb, Mibolerone]
% signal present in the nucleus
  Nuclear Translocation, Max: 78.9±1.5%
Absolute numerical measurement
  Hyperspeckling, Max: 785±30
pARR2PB-dsRED2skl reporter, absolute numerical measurement
  Transcriptional Activity, Max: 98±2.2
